Data reported in US7884114B2, “Compounds” (Glaxo Group Limited, priority 2007, dated 2011).
Structures can show the parent of a compound that is named as a salt. Where two headings read alike, the source gives them in different places.

How the values were obtained:
human H1 receptor [1] = target: T1, human H1 receptor (Homo sapiens, UniProt P35367); experiment: Histamine H1 functional antagonist assay (FLIPR): antagonist pA2; format: cell-based
T1 construct: expressed in transfected cells
Description: (§1) The human H1 receptor is cloned using known procedures described in the literature [Biochem. Biophys. Res. Commun., 201(2):894 (1994)]. Chinese hamster ovary (CHO) cells stably expressing the human H1 receptor are generated according to known procedures described in the literature [Br. J. Pharmacol., 117(6):1071 (1996)].
Histamine H1 Functional Antagonist Assay: Determination of Antagonist pA2 and Duration
The histamine H1 receptor expressing CHO cells are seeded into non-coated black-walled clear bottom 96-well tissue culture plates as described above.
Following overnight culture, growth medium is removed from each well, washed with 200 μl PBS and is replaced with 50 μl loading dye (250 μM Brilliant Black, 1 μM Fluo-4 diluted in Tyrodes buffer+probenecid (145 mM NaCl, 2.5 mM KCl, 10 mM HEPES, 10 mM D-glucose, 1.2 mM MgCl2, 1.5 mM CaCl2, 2.5 mM probenecid, pH adjusted to 7.40 with NaOH 1.0 M)). Cells are incubated for 45 min at 37° C. The loading buffer is removed and the cells are washed as above, and 90 μl of Tyrodes buffer+probenecid is added to each well. 10 μl of test compound, diluted to the required concentration in Tyrodes buffer+probenecid (or 10 μl Tyrodes buffer+probenecid as a control) is added to each well and the plate is incubated for 30 min at 37° C., 5% CO2.
The plates are then placed into a FLIPR™ (Molecular Devices, UK) to monitor cell fluorescence (λex=488 nm, λEM=540 nm) in the manner described in Sullivan et al., (In: Lambert D G (ed.), Calcium Signaling Protocols, New Jersey: Humana Press, 1999, 125-136) before and after the addition of 50 μl histamine over a concentration range of 1 mM-0.1 nM. […] The antagonist pA2 is calculated using the following standard equation: pA2=log(DR−1)−log [ B] where DR=dose ratio, defined as EC50antagonist-treated/EC50control and [B]=concentration of antagonist.

human H1 receptor [2] = target: T1, human H1 receptor; experiment: Histamine H1 functional antagonist assay (FLIPR): functional pKi; format: cell-based; conditions: CHO cells expressing human H1 receptor, histamine EC80, read-out: average pKi (pKb) at H1 (converted)
Description: as §1
10 μl of test compound, diluted to the required concentration in Tyrodes buffer+probenecid (or 10 μl Tyrodes buffer+probenecid as a control) is added to each well and the plate is incubated for 30 min at 37° C., 5% CO2.

[3] = test system: histamine-induced nasal congestion; experiment: Intranasal challenge method: whole body plethysmography, histamine-induced nasal congestion; format: in vivo, Dunkin-Hartley guinea pigs; conditions: for inhibition of response to histamine challenge: dosed intranasally at 1 mg/ml
Description: Intranasal Challenge Method: Whole Body Plethysmography
Female Dunkin-Hartley guinea pigs 150-250 g are sensitised twice daily for 5 days (week 1) with ovalbumin (OVA) and aluminium hydroxide (Al(OH)3 or Alum) in physiological saline, 25 μl/nostril. Solution is made up at 20 μg/ml OVA, 180 mg/ml Alum. During weeks 2 and 3 animals receive 25 μl/nostril of OVA (5 mg/ml) once daily. During Week 4 guinea pigs will be entered into study but are continually sensitized as per weeks 2 and 3 until the day before dosing with compound or vehicle.
(b) Compound Vehicle Pretreatment
Pretreatment with test compound is performed at various times prior to histamine challenge. Efficacy dose-response curves are determined 1 hr and/or 3 hr after dosing whereas duration of action may be studied up to 7 days post dose (for example, at 24 hours). Test compounds are formulated as solutions in 0.9% sterile saline or suspensions in 0.9% sterile saline/tween80.
Guinea pigs were anaesthetised with isoflurane (5%, 2-31/min O2), placed in a supine position, and 25 μl of test compound or vehicle dosed into each nostril using a Gilson pipette. After dosing, animals remain supine for at least 30 seconds (e.g. 60 seconds) during recovery from anaesthesia.
(c) Histamine Challenge Protocol
G. & Gelfand, E. W. (1997), Noninvasive measurement of airway responsiveness in allergic mice using barometric plethysmography., Am. J. Respir. Crit. Care Med., 156, 766-775.
After the stipulated pre-dose time has been reached, guinea pigs are re-anaesthetised with isoflurane and dosed with either 10 mM or 15 mM histamine or phosphate-buffered saline (PBS), (25 μl per nostril). […] These recordings are summed to give a cumulative AUC over 40 mins post histamine challenge for each animal. Data are analysed using ANOVA with post-hoc Fishers LSD test (general linear models, Statistica®) and finally Hochberg adjustment. Inhibition of histamine-induced congestion is determined by statistically significant differences between the mean responses of compound pre-treated groups compared to the vehicle pre-treated, histamine-challenged group.

human H1 receptor [4] = target: T1, human H1 receptor; experiment: Histamine H1 functional antagonist assay: antagonist duration after washout; format: cell-based; conditions: at one or more time points
Description: The human H1 receptor is cloned using known procedures described in the literature [Biochem. Biophys. Res. Commun., 201(2):894 (1994)]. Chinese hamster ovary (CHO) cells stably expressing the human H1 receptor are generated according to known procedures described in the literature [Br. J. Pharmacol., 117(6):1071 (1996)]. […] Following the 30 min antagonist incubation period, the cells are washed two or three times with 200 μl of PBS and then 100 μl Tyrodes buffer is added to each well to initiate antagonist dissociation. […] After this period, the cells are challenged with histamine in the FLIPR™ as described above. […] The decrease in receptor occupancy over time approximates to a straight line and is analysed by linear regression. The slope of this straight line fit is used as an index of the dissociation rate of the antagonist. The dose ratios for antagonist treated cells and for antagonist treated and washed cells at each time point are used to calculate a relative dose ratio (rel DR) which is also used as an index of antagonist duration. Antagonists with long duration of action produce rel DR values close to 1, and antagonists with short duration of action produce rel DR values that approaches the dose ratio value obtained for antagonist treatment alone.

[5] = CHO cells expressing H1 receptor, FLIPR, histamine concentration response curves, read-out: average pA2 (converted)

T1 sequence (P35367 whole entry): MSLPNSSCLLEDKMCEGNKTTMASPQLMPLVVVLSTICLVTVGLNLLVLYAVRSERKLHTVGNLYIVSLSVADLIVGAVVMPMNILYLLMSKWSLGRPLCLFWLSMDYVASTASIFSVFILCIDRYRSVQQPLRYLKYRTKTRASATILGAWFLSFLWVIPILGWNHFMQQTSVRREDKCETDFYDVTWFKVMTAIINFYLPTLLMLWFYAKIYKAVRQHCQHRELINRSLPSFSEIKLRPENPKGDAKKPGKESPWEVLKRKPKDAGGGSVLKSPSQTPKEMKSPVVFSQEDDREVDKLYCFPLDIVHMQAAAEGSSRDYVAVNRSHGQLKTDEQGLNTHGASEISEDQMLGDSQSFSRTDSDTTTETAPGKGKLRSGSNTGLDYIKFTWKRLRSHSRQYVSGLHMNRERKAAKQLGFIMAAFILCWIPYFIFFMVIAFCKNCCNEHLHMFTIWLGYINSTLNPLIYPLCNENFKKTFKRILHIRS

SMILES | Kb (human H1 receptor [1]; [5]) [nM] | other results
CCCCc1cc(OC2CCN(CCS(=O)(=O)C(C)(C)C)CC2)c2ncccc2c1 [Example 2, 6-Butyl-8-[(1-{2-[(1,1-dimethylethyl)sulfonyl]ethyl}-4-piperidinyl)oxy]quinoline, dihydrochloride salt] | < 1 | –
CCCCc1cc(OC2CCN(CCCS(C)(=O)=O)CC2)c2ncccc2c1 [Example 3, 6-Butyl-8-({1-[3-(methylsulfonyl)propyl]-4-piperidinyl}oxy)quinoline, dihydrochloride salt] | < 10 | –
CCCCc1cc(OC2CCN(CCCS(=O)(=O)C3CCCC3)CC2)c2ncccc2c1 [Example 8, 6-Butyl-8-({1-[3-(cyclopentylsulfonyl)propyl]-4-piperidinyl}oxy)quinoline, formate salt (1:1)] | – | Kb (human H1 receptor [1]): < 100 nM
CCCCCc1cc(OC2CCN(CCCS(=O)(=O)CC)CC2)c2ncccc2c1 [Example 11, 8-({1-[3-(Ethylsulfonyl)propyl]-4-piperidinyl}oxy)-6-pentylquinoline, dihydrochloride salt] | < 1 | –
CCCCc1cc(O[C@@H]2CCN(CCCS(=O)(=O)C(C)(C)C)C2)c2ncccc2c1 [Example 12, 6-Butyl-8-[((3R)-1-{3-[(1,1-dimethylethyl)sulfonyl]propyl}-3-pyrrolidinyl)oxy]quinoline, dihydrochloride salt] | < 100 | –
CCCCc1cc(OC2CCN(C3CCS(=O)(=O)C3)CC2)c2ncccc2c1 (stereo not drawn) [Example 13, 6-Butyl-8-{[1-(1,1-dioxidotetrahydro-3-thienyl)-4-piperidinyl]oxy}quinoline] | < 100 | Ki (human H1 receptor [2]): < 100 nM
CCCCc1cc(OC2CCN(CCNS(=O)(=O)CC(C)C)CC2)c2ncccc2c1 [Example 15, N-(2-{4-[(6-Butyl-8-quinolinyl)oxy]-1-piperidinyl}ethyl)-2-methyl-1-propanesulfonamide, dihydrochloride salt] | < 10 | Ki (human H1 receptor [2]): < 100 nM
CCCCc1cc(OC2CCN(CCNS(=O)(=O)c3ccccc3)CC2)c2ncccc2c1 [Example 16, N-(2-{4-[(6-Butyl-8-quinolinyl)oxy]-1-piperidinyl}ethyl)benzenesulfonamide, dihydrochloride salt] | < 10 | Ki (human H1 receptor [2]): < 100 nM
CCCCc1cc(OC2CCN(CCCNS(=O)(=O)CCC)CC2)c2ncccc2c1 [Example 18, N-(3-{4-[(6-Butyl-8-quinolinyl)oxy]-1-piperidinyl}propyl)-1-propanesulfonamide, dihydrochloride salt] | < 1 | –
CCCCc1cc(OC2CCN(CCCNS(=O)(=O)C(C)C)CC2)c2ncccc2c1 [Example 19, N-(3-{4-[(6-Butyl-8-quinolinyl)oxy]-1-piperidinyl}propyl)-2-propanesulfonamide, dihydrochloride salt] | < 1 | –
CCCCc1cc(OC2CCN(CCCCNS(=O)(=O)CC)CC2)c2ncccc2c1.Cl.Cl [Example 23B, N-(4-{4-[(6-Butyl-8-quinolinyl)oxy]-1-piperidinyl}butyl)ethanesulfonamide, dihydrochloride salt] | – | inhibition of response to histamine challenge ([3]; 3 hr before histamine challenge): significantly (p<0.05) inhibited the response; inhibition of response to histamine challenge ([3]; 24 hr before histamine challenge): significantly (p<0.05) inhibited the response
CCCCc1cc(OC2CCN(CCCCNS(=O)(=O)CC(C)C)CC2)c2ncccc2c1 [Example 26, N-(4-{4-[(6-Butyl-8-quinolinyl)oxy]-1-piperidinyl}butyl)-2-methyl-1-propanesulfonamide, dihydrochloride salt] | – | duration of action compared with azelastine (human H1 receptor [4]): longer duration of action than azelastine
CCCCc1cc(OC2CCN(CCCCNS(=O)(=O)CC3CCCCC3)CC2)c2ncccc2c1 [Example 28, N-(4-{4-[(6-Butyl-8-quinolinyl)oxy]-1-piperidinyl}butyl)-1-cyclohexyl methane sulfonamide, dihydrochloride salt] | < 10 | –
CCCCc1cc(OC2CCN(CCCCCNS(C)(=O)=O)CC2)c2ncccc2c1 [Example 31, N-(5-{4-[(6-Butyl-8-quinolinyl)oxy]-1-piperidinyl}pentyl)methanesulfonamide, dihydrochloride salt] | < 1 | –
CCCCc1cc(OC2CCN(CCCCCNS(=O)(=O)CC)CC2)c2ncccc2c1 [Example 32, N-(5-{4-[(6-Butyl-8-quinolinyl)oxy]-1-piperidinyl}pentyl)ethanesulfonamide, dihydrochloride salt] | < 1 | –
CCCCc1cc(OC2CCN(CCCNC(=O)NCCC)CC2)c2ncccc2c1 [Example 36, N-(3-{4-[(6-Butyl-8-quinolinyl)oxy]-1-piperidinyl}propyl)-N′-propylurea, dihydrochloride salt] | – | Kb (human H1 receptor [1]): < 1 nM
CN1CCCC(n2nc(Cc3ccc(Cl)cc3)c3ccccc3c2=O)CC1 (stereo not drawn) [azelastine, reference compound] | – | duration of action in intranasal challenge model ([3]; administered at the same concentration (1 mg/ml intranasally)): failed to show a similar duration of action
